The record followed here is patent publication US8029764B2, “Methods for detection of colorectal cancer” (The Johns Hopkins University, priority 2001, dated 2011).

In the series the test system is colorectal tissue transcripts. The series can be described thus: SAGE of normal, adenoma and cancer colorectal tissue (transcript tag counts). Further details: species or system human. To be noted: for AD1 (SAGE tag count): adenoma library 1; for AD2 (SAGE tag count): adenoma library 2; for CA1 (SAGE tag count): cancer library 1; for CA2 (SAGE tag count): cancer library 2; for NC1 (SAGE tag count): normal colorectal tissue library 1; for NC2 (SAGE tag count): normal colorectal tissue library 2. In a few lines:
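Tag counts reflect transcript abundance, each mRNA represented by a 15-base tag near its 3′ end. Excluding MHC tags, linkers and duplicate ditags, libraries were compared statistically: two each of normal epithelium, FAP-derived adenomas (>70% neoplastic) and carcinomas.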

In the case of “TAAGGCCTTT (chemistry not fully specified; the letters are possibly those of the target site)”, the “AD1 (SAGE tag count)” value is 1, the “AD2 (SAGE tag count)” value is 0, the “CA1 (SAGE tag count)” value is given as 0 and the “CA2 (SAGE tag count)” value was found to be 1. Further, the “NC1 (SAGE tag count)” value was determined as 6 and the “NC2 (SAGE tag count)” value is recorded as 9.

For the sequence “TAATCCCAGC (chemistry not fully specified)”, the “AD1 (SAGE tag count)” value was 8, the “AD2 (SAGE tag count)” value is given as 7, the “CA1 (SAGE tag count)” value was determined as 16 and the “CA2 (SAGE tag count)” value came out at 13. In addition, the “NC1 (SAGE tag count)” value is on record as 37 and the “NC2 (SAGE tag count)” value stood at 33.

Turning to “TAATTTGCAT (chemistry not fully specified)”, the “AD1 (SAGE tag count)” value turned out to be 1, the “AD2 (SAGE tag count)” value is 1, the “CA1 (SAGE tag count)” value was found to be 2 and the “CA2 (SAGE tag count)” value is reported as 0. Also, the “NC1 (SAGE tag count)” value is given as 25 and the “NC2 (SAGE tag count)” value came to 2.

As for “TACGGTGTGG (chemistry not fully specified)”, the “AD1 (SAGE tag count)” value was found to be 2, the “AD2 (SAGE tag count)” value amounted to 2, the “CA1 (SAGE tag count)” value is 1 and the “CA2 (SAGE tag count)” value stood at 0. Also, the “NC1 (SAGE tag count)” value was 7 and the “NC2 (SAGE tag count)” value came out at 13.

On to “TACTCGGCCA (chemistry not fully specified)”, for which the “AD1 (SAGE tag count)” value stood at 0, the “AD2 (SAGE tag count)” value is 0, the “CA1 (SAGE tag count)” value worked out at 1 and the “CA2 (SAGE tag count)” value was 0. The “NC1 (SAGE tag count)” value stood at 10 and the “NC2 (SAGE tag count)” value is recorded as 5.

On to “TACTGTGGAT (chemistry not fully specified)”, for which the “AD1 (SAGE tag count)” value was found to be 0, the “AD2 (SAGE tag count)” value came to 2, the “CA1 (SAGE tag count)” value stood at 2 and the “CA2 (SAGE tag count)” value is listed as 1. Also, the “NC1 (SAGE tag count)” value is recorded as 4 and the “NC2 (SAGE tag count)” value was 11.

On to “TAGACTAGCA (chemistry not fully specified)”, for which the “AD1 (SAGE tag count)” value was determined as 6, the “AD2 (SAGE tag count)” value came out at 6, the “CA1 (SAGE tag count)” value is 22 and the “CA2 (SAGE tag count)” value is given as 4. Also, the “NC1 (SAGE tag count)” value came to 31 and the “NC2 (SAGE tag count)” value turned out to be 27.

For “TAGGATGGGG (chemistry not fully specified)”, the “AD1 (SAGE tag count)” value worked out at 4, the “AD2 (SAGE tag count)” value was 7, the “CA1 (SAGE tag count)” value is listed as 6 and the “CA2 (SAGE tag count)” value is recorded as 1. The “NC1 (SAGE tag count)” value turned out to be 24 and the “NC2 (SAGE tag count)” value is on record as 30.

Regarding “TATGATGAGC (chemistry not fully specified)”, the “AD1 (SAGE tag count)” value turned out to be 2, the “AD2 (SAGE tag count)” value is given as 2, the “CA1 (SAGE tag count)” value turned out to be 1 and the “CA2 (SAGE tag count)” value is on record as 5. Also, the “NC1 (SAGE tag count)” value is listed as 13 and the “NC2 (SAGE tag count)” value worked out at 21.

With “TCACAGTGCC (chemistry not fully specified)”, the “AD1 (SAGE tag count)” value is given as 3, the “AD2 (SAGE tag count)” value stood at 1, the “CA1 (SAGE tag count)” value amounted to 3 and the “CA2 (SAGE tag count)” value is 4. The “NC1 (SAGE tag count)” value stood at 26 and the “NC2 (SAGE tag count)” value worked out at 7.

In the case of “TCACCGGTCA (chemistry not fully specified)”, the “AD1 (SAGE tag count)” value is 10, the “AD2 (SAGE tag count)” value is 10, the “CA1 (SAGE tag count)” value was found to be 5 and the “CA2 (SAGE tag count)” value turned out to be 6. Further, the “NC1 (SAGE tag count)” value is 118 and the “NC2 (SAGE tag count)” value was determined as 75.

On to “TCAGAGCGCT (chemistry not fully specified)”, for which the “AD1 (SAGE tag count)” value was 0, the “AD2 (SAGE tag count)” value is listed as 7, the “CA1 (SAGE tag count)” value turned out to be 0 and the “CA2 (SAGE tag count)” value was 1. The “NC1 (SAGE tag count)” value is 5 and the “NC2 (SAGE tag count)” value turned out to be 21.

Turning to “TCAGCTGCAA (chemistry not fully specified)”, the “AD1 (SAGE tag count)” value was found to be 0, the “AD2 (SAGE tag count)” value is 0, the “CA1 (SAGE tag count)” value was 9 and the “CA2 (SAGE tag count)” value came to 3. The “NC1 (SAGE tag count)” value stood at 56 and the “NC2 (SAGE tag count)” value turned out to be 16.

On to “TCGGAGCTGT (chemistry not fully specified)”, for which the “AD1 (SAGE tag count)” value is listed as 9, the “AD2 (SAGE tag count)” value amounted to 6, the “CA1 (SAGE tag count)” value is listed as 3 and the “CA2 (SAGE tag count)” value was 0. The “NC1 (SAGE tag count)” value amounted to 21 and the “NC2 (SAGE tag count)” value is on record as 20.

“TCTGAATTAT (chemistry not fully specified)”: the “AD1 (SAGE tag count)” value was found to be 0, the “AD2 (SAGE tag count)” value is 0, the “CA1 (SAGE tag count)” value is listed as 1 and the “CA2 (SAGE tag count)” value worked out at 0. Besides, the “NC1 (SAGE tag count)” value worked out at 24 and the “NC2 (SAGE tag count)” value is listed as 16.

Take “TGACTAATTG (chemistry not fully specified)”: the “AD1 (SAGE tag count)” value is 2, the “AD2 (SAGE tag count)” value amounted to 0, the “CA1 (SAGE tag count)” value is 0 and the “CA2 (SAGE tag count)” value was 3. The “NC1 (SAGE tag count)” value is recorded as 7 and the “NC2 (SAGE tag count)” value came out at 9.

In the case of “TGAGTGACAG (chemistry not fully specified)”, the “AD1 (SAGE tag count)” value came to 0, the “AD2 (SAGE tag count)” value is listed as 6, the “CA1 (SAGE tag count)” value is recorded as 3 and the “CA2 (SAGE tag count)” value was found to be 7. Besides, the “NC1 (SAGE tag count)” value was 9 and the “NC2 (SAGE tag count)” value stood at 68.

Consider “TGATCTCTGT (chemistry not fully specified)”, for which the “AD1 (SAGE tag count)” value is 1, the “AD2 (SAGE tag count)” value was 0, the “CA1 (SAGE tag count)” value is 1 and the “CA2 (SAGE tag count)” value worked out at 1. In addition, the “NC1 (SAGE tag count)” value stood at 6 and the “NC2 (SAGE tag count)” value worked out at 7.

In the case of “TGCAGCACGA (chemistry not fully specified)”, the “AD1 (SAGE tag count)” value was 5, the “AD2 (SAGE tag count)” value turned out to be 30, the “CA1 (SAGE tag count)” value worked out at 24 and the “CA2 (SAGE tag count)” value is on record as 16. Besides, the “NC1 (SAGE tag count)” value turned out to be 6 and the “NC2 (SAGE tag count)” value is reported as 185.

Take “TGCAGCGCCT (chemistry not fully specified; the letters are possibly those of the target site)”: the “AD1 (SAGE tag count)” value is given as 1, the “AD2 (SAGE tag count)” value was 1, the “CA1 (SAGE tag count)” value was 1 and the “CA2 (SAGE tag count)” value is 1. Moreover, the “NC1 (SAGE tag count)” value is on record as 16 and the “NC2 (SAGE tag count)” value was found to be 9.

Take “TGCCGCCCGC (chemistry not fully specified)”: the “AD1 (SAGE tag count)” value stood at 2, the “AD2 (SAGE tag count)” value is listed as 2, the “CA1 (SAGE tag count)” value is 1 and the “CA2 (SAGE tag count)” value stood at 0. Further, the “NC1 (SAGE tag count)” value was found to be 14 and the “NC2 (SAGE tag count)” value worked out at 5.

In the case of “TGCTCCTACC (chemistry not fully specified; the letters are possibly those of the target site)”, the “AD1 (SAGE tag count)” value was 70, the “AD2 (SAGE tag count)” value was 22, the “CA1 (SAGE tag count)” value was determined as 17 and the “CA2 (SAGE tag count)” value worked out at 22. The “NC1 (SAGE tag count)” value is reported as 140 and the “NC2 (SAGE tag count)” value amounted to 113.

Regarding “TGGCCATCTG (chemistry not fully specified)”, the “AD1 (SAGE tag count)” value is 8, the “AD2 (SAGE tag count)” value worked out at 7, the “CA1 (SAGE tag count)” value is reported as 3 and the “CA2 (SAGE tag count)” value is 4. In addition, the “NC1 (SAGE tag count)” value stood at 30 and the “NC2 (SAGE tag count)” value was 24.

For “TGGCGCGTGT (chemistry not fully specified)”, the “AD1 (SAGE tag count)” value worked out at 0, the “AD2 (SAGE tag count)” value was 0, the “CA1 (SAGE tag count)” value came out at 9 and the “CA2 (SAGE tag count)” value was found to be 5. For the same sequence, the “NC1 (SAGE tag count)” value is listed as 25 and the “NC2 (SAGE tag count)” value is reported as 8.

Turning to “TGGCTACTTA (chemistry not fully specified)”, the “AD1 (SAGE tag count)” value turned out to be 1, the “AD2 (SAGE tag count)” value turned out to be 0, the “CA1 (SAGE tag count)” value is given as 1 and the “CA2 (SAGE tag count)” value amounted to 2. In addition, the “NC1 (SAGE tag count)” value came to 6 and the “NC2 (SAGE tag count)” value is recorded as 9.

“TGGGGAGAGG (chemistry not fully specified)”: the “AD1 (SAGE tag count)” value stood at 20, the “AD2 (SAGE tag count)” value came to 7, the “CA1 (SAGE tag count)” value is listed as 3 and the “CA2 (SAGE tag count)” value came to 7. Further, the “NC1 (SAGE tag count)” value came out at 43 and the “NC2 (SAGE tag count)” value stood at 18.

Turning to “TTAACCCCTC (chemistry not fully specified)”, the “AD1 (SAGE tag count)” value stood at 5, the “AD2 (SAGE tag count)” value came to 9, the “CA1 (SAGE tag count)” value was 1 and the “CA2 (SAGE tag count)” value turned out to be 5. Also, the “NC1 (SAGE tag count)” value worked out at 34 and the “NC2 (SAGE tag count)” value is on record as 14.

Turning to “TTATGGTGTG (chemistry not fully specified)”, the “AD1 (SAGE tag count)” value worked out at 0, the “AD2 (SAGE tag count)” value came to 0, the “CA1 (SAGE tag count)” value is 0 and the “CA2 (SAGE tag count)” value was 0. For the same sequence, the “NC1 (SAGE tag count)” value worked out at 11 and the “NC2 (SAGE tag count)” value turned out to be 17.

Take “TTCCACTAAC (chemistry not fully specified)”: the “AD1 (SAGE tag count)” value stood at 7, the “AD2 (SAGE tag count)” value is 4, the “CA1 (SAGE tag count)” value is reported as 5 and the “CA2 (SAGE tag count)” value is given as 5. Besides, the “NC1 (SAGE tag count)” value came to 29 and the “NC2 (SAGE tag count)” value came out at 9.
